Experiment [1] concerns ischemic brain damage in rats. The following applies: 60 mg/kg and 30 mg/kg, 3 and 7 hours after reperfusion; cited from earlier work.
Experiment [2] relates to liver and pancrea cells. The experiment can be described thus: Pro/antiapoptosis properties, electrophoresis of DNA fragments. It is filed as in vivo. The following applies: intact male Wistar rats; 50 mg/kg. The protocol:
The assessment of pro/antiapoptotosis properties of substances was carried in intact male rats of Wistar line. The test substance were administered for 2 weeks by means of a probe in aqueous suspension containing Tween-80 at a dose of 50 mg/kg of body weight. The animals were euthanized by cervical vertebrae translocation 24 hours after the experiment. The identification of apoptosis of liver and pancrea cells was performed using electrophoretic method. […] Cell necrosis conditioned the “smeared” nature of DNA migration zone. The luminescence band of intact DNA was in the starting area.
The expression of apoptosis manifestations was assessed by registration of DNA fragments via electrophoresis.

The subject of experiment [3] is rats. The experiment can be described thus: Acute normobaric hypoxic hypoxia with hypercapnia (ANHHH), life duration. It is filed as in vivo. To be noted: preventive administration; SI-86 and SI-108 10 mg/kg iv, mexydol 100 mg/kg ip. The protocol: The study of antihypoxic activity of 10 original derivatives of 3,2′-spiro-pyrrolo-2-oxindole was conducted on models of acute normobaric hypoxic hypoxia with hypercapnia (ANHHH) and acute asphyxia. ANHHH was modeled by means of rat arrangement into isolated pressure compartments (0.001 m^3). The observation conducted until the death of the animals. The antihypoxic activity was assessed by life duration (in minutes) in relation to the control taken as 100%, by the formula AA=tt/tk×100%, wherein AA—antihypoxic activity (%), tt—life duration of test animals, tc—life duration of control animals.
(§1) The preliminary screening of test substances was performed on ANHHH model. All derivatives were administered in the same dose of 10 mg/kg […] (iv) 1 hour prior to pathological state modeling. […] The effectiveness of a leader compound was evaluated at doses 5; 10 and 15 mg/kg iv. Mexydol was chosen as a reference drug having antihypoxic action in combination with antioxidant and membrane protective activity, which is successfully used in patients with CVA and IM. Mexydol was administered intraperitoneally (ip) at a dose of 100 mg/kg according to similar scheme.

The test system of experiment [4] is rat heart bioelectrical activity. Description: Acute asphyxia, duration of heart bioelectrical activity. It is filed as in vivo, rats. The protocol: Acute asphyxia was modeled in rats anesthetized with propofol (60 mg/kg) intraperitoneally (ip) by complete clamping the trachea at electrocardiogram (EGC) registration. The antihypoxic effect was evaluated by duration of heart bioelectric activity (HBA). This model allows to estimate the heart sensitivity to hypoxia. An isoelectric ECG line for 1 minute considered as HBA termination, the pint of HBA termination corresponded to the last QRS complex on the ECG. The calculation of […] activity was performed by the above formula considering a point of last QRS complex registration as a lifetime.
as §1

Experiment [5] has as its system rats with intracerebral hemorrhage. Description: Lethality of rats with intracerebral hemorrhage of average severity. It is filed as in vivo. The protocol: The chosen model allows to reproduce clinical pattern of […] and is adequate for clinical study of potential neuroprotective agents.
As comparators the following drugs were used: mexydol (“Mexydol” UC Pharmasoft, Russia), 100 mg/kg; citicoline (“Somazina” Ferrer International, SA, Spain), 250 mg/kg; aktovegin (“Aktovegin”, Nycomed, Austria), 16 mg/kg pyracetam (“Pyracetam” Darnitsa, Ukraine), 400 mg/kg. According to the latest clinical guidelines regarding the treatment of patients with CVA approved by the Ministry of Health of Ukraine (Order No. 602 dated 3 Aug. 2012), all these drugs are allowed to be included into schemes for intensive patients therapy with CVA as neuroprotective agents. They were used at recommended doses for preclinical studies (McGrow C. P. Experimental Cerebral Infarction Effects of Pentobarbital in Mongolian Gerbils/C. P. McGrow//Arch. Neurol.-1977.-Vol. 34, No. 6.-P. 334-336). Experimental therapy of acute cerebral ischemia with SI-86 compound and comparator started 1 hour after IUD once a day for 21 days. […] Reference drugs were injected intraperitoneally (ip). Rats of control pathology group were injected by autoblood and as therapy 0.9% NaCI solution was administered calculated for 2 ml/kg iv.
Pseudo-operated rats were exposed to all interventions (anesthesia, craniotomy) excluding autoblood administration that leveled traumatic impact of experimental conditions.
(§2) Evaluation of the ability of animals to learn and memorize of aversive stimulus was examined in the test of conditioned response of passive avoidance (CRPA). The technique is based on innate rat instinct to limited shadowy space. The study in rats was conducted in two-compartment unit consisted of two sections—light and dark. An animal was arranged into light compartment, fixing latency time for entering into the dark compartment, wherein rat received current irritation and ran in the light compartment. CRPA retention was tested every other day under latency time change of rat entering into the dark compartment. Also the number of animals was noted not fully entered the dark chamber. Cerebroprotective efficiency criteria of studied compounds were also animal death term (days) and their mortality rate (in %).
Quantitative data were processed using statistical StatPlus 2009 processing. The statistical significance of differences was assessed by Fisher's angular transformation (lethality outcome), also parametric t Student criterion were used in case of normal distribution of variation series, nonparametric W White criterion—in its absence.

Experiment [6] shares this test system. The experiment can be described thus: Neurological deficit (C. P. McGrow stroke-index scale) in rats with intracerebral hemorrhage. It is filed as in vivo. To be noted: n = 15. The protocol:
(§3) Neuroprotective effect of 3,2′-spiro-pyrrolo-2-oxindole derivative (SI-86 compound) was studied on IUD model of moderate severity modeled under propofol anesthesia (60 mg/kg intraperitoneally (ip)) by autoblood administration into the brain internal capsule (stereotactic coordinates of the projection: H=7.0 mm, L=3.0 mm, A=1.5 mm from bregma) ([…]) (Method for reproduction of intracerebral hemorrhage in rats/O. K. Yarosh, S. V. Kyrychenko, S. P. Halimonchyk [et al.]//Circulation and hemostasis.-2005.-No. 1.-P. 77-81). The chosen model allows to reproduce clinical pattern of […] and is adequate for clinical study of potential neuroprotective agents.
(§4) As comparators the following drugs were used: mexydol (“Mexydol” UC Pharmasoft, Russia), 100 mg/kg; citicoline (“Somazina” Ferrer International, SA, Spain), 250 mg/kg; aktovegin (“Aktovegin”, Nycomed, Austria), 16 mg/kg pyracetam (“Pyracetam” Darnitsa, Ukraine), 400 mg/kg. According to the latest clinical guidelines regarding the treatment of patients with CVA approved by the Ministry of Health of Ukraine (Order No. 602 dated 3 Aug. 2012), all these drugs are allowed to be included into schemes for intensive patients therapy with CVA as neuroprotective agents. They were used at recommended doses for preclinical studies (McGrow C. P. Experimental Cerebral Infarction Effects of Pentobarbital in Mongolian Gerbils/C. P. McGrow//Arch. Neurol.-1977.-Vol. 34, No. 6.-P. 334-336). Experimental therapy of acute cerebral ischemia with SI-86 compound and comparator started 1 hour after IUD once a day for 21 days. The SI-86 derivative was investigated in conventionally effective dose of 10 mg/kg […] (iv)-dose that according to the results of our previous study provides maximum antihypoxic activity of SI-86 compound. Reference drugs were injected intraperitoneally (ip). Rats of control pathology group were injected by autoblood and as therapy 0.9% NaCI solution was administered calculated for 2 ml/kg […].
Neurological deficit in animals with acute CVA respectively in acute (4th day) and recovery (21 st day) periods was measured on C. P. McGrow stroke-index scale. The state severity was determined by amount of relevant points: to 3 points-mild, 3 to 7 points-average, above 7 points-severe degree. Pareses, paralyses of limbs, tremors, circus movement, ptoses, lateral positions, ability of rats to be maintained at the core of 15 cm diameter, rotating at the rate of 3 rpm were noted. The animals were tested daily by displaying the amount of points:
one-sided semi-ptosis—0.5 points; one-sided ptosis—1 point; tremor—0.5 points; circus movements—0.5 points; pareses of limbs (for each limb)—1 point; paralyses of limbs (for each limb)—2 points; lateral position—3 points; disability to maintain on rotating rod during 4 minutes—3 points.

Experiment [7] shares this test system. Description: Conditioned response of passive avoidance (CRPA) in rats with intracerebral hemorrhage. It is filed as in vivo. To be noted: 21st day, n = 15. The protocol: as §3, §4, §2
[8] abbreviates: 12 h, SI-86 10 mg/kg iv, mexydol 100, citocoline 250, actovegin 16, pyracetam 400 mg/kg.

Here are results for four molecules from patent publication US20160297828A1, “SPIROCYCLIC COMPOUNDS CONTAINING SPIRO[INDOLYL-3,1'-PYRROLO[3,4-C]PYRROLE] CORE AND SULPHUR-CONTAINING AMINO ACID RESIDUES” (priority 2013, published 2016).

Values joined by “and” are separate entries in the source; they are usually repeats but may differ in a detail not shown here. Equal entries are not always repeated. Marks after values point to notes of the source that are not given here.

Regarding `Cc1c(Cl)cccc1S(=O)(=O)Nc1nc(CC(=O)N2CCN(C)CC2)cs1.Cl` [BVT-2733, 3-chloro-2-methyl-N-(4-(2-(4-methylpiperazin-1-yl)-2-oxoethyl)thiazol-2-yl)benzenesulfonamide hydrochloride], the “amount of ischemic brain damage” value in experiment [1] is listed as “reduced the amount of ischemic brain damage”.
Consider `CCSCC[C@@H]1N[C@@]2(C(=O)Nc3ccccc32)[C@@H]2C(=O)N(c3ccc(C)cc3)C(=O)[C@H]12` [SI-34, 5′-(4-Methylphenyl)-3′-[2-(ethylthio)ethyl]-3a′,6a′-dihydro-2′H-spiro[indole-3, 1′-pyrrolo[3,4-c]pyrrol]-2,4′,6′(1H,3H′,5H′)-trione], for which the level of apoptosis result in experiment [2] is on record as “closed to that of control group”.
On to `CCSCC[C@@H]1N[C@@]2(C(=O)N(Cc3ccc(Cl)cc3)c3ccccc32)[C@@H]2C(=O)N(c3ccc(C)cc3)C(=O)[C@H]12` [SI-108, 1-(4-Chloro-benzyl)-3′-[2-(ethylthio)ethyl]-5′-(4-methylphenyl)-3a′,6a′-dihydro-2′H-spiro[indole-3,1′-pyrrolo[3,4-c]pyrrol]-2,4′,6′(1H,3′H,5′H)-trione], for which the “increase of life duration in rats in relation to control” value in experiment [3] is reported as 28.6%. In experiment [4] (10 mg/kg iv), the Antihypoxic activity is listed as −18.4% and the “Duration of heart bioelectrical activity” value is 9.5 ± 1.1 min.
Turning to `CCc1nc(C)ccc1O.O=C(O)CCC(=O)O` [mexydol], the “Lethality, %” value in experiment [5] (setting [8]) is 0/0%*^#; in experiment [5] (48 h, same doses), 7.9%; in experiment [5] (72 h, same doses), 10.5%; in experiment [5] (96 h, same doses) it was 13.2%. Moreover, the “Lethality, abs.” value in experiment [5] (setting [8]) is given as 0/0%*^#; in experiment [5] (24 h, same doses), 0/0%*^#; in experiment [5] (48 h, same doses), 3; in experiment [5] (72 h, same doses) it was 4; in experiment [5] (96 h, same doses) it was 5. Also, the cerebroprotective protection in experiment [5] (24 h observation, SI-86 10, mexydol 100, citicoline 250 mg/kg) is listed as 100%. Besides, the “reduction of mortality in rats at the end of the observation period relative to control” value in experiment [5] (within 4 days of therapy, same doses) is recorded as 17.2%. In addition, the “neurological deficit, average point under C. P. McGrow scale” value in experiment [6] (day 4, SI-86 10 mg/kg iv, mexydol 100, citocoline 250, actovegin 16, pyracetam 400 mg/kg ip) is 4.30 ± 0.25°*^#•$ points; in experiment [6] (day 21, same doses), 3.8 points and 3.80 ± 0.21°*^#•$ points. Moreover, the “Latent period for entrance into dark compartment, prior study” value in experiment [7] (SI-86 10 mg/kg iv, mexydol 100, citocoline 250, actovegin 16, pyracetam 400 mg/kg ip) is recorded as 11.30 ± 0.47°*^#$ s. Moreover, in experiment [7] (same doses), the “Latent period for entrance into dark compartment, 24 hours after study” value was determined as 106.80 ± 2.77°*^#•$ s. The “increase of life duration in rats in relation to control” value in experiment [3] was 80.2%. Also, the Antihypoxic activity entry in experiment [4] (100 mg/kg ip) was “+50.9%”. Moreover, the “Duration of heart bioelectrical activity” value in experiment [4] (100 mg/kg ip) was 17.5 ± 0.5 min.
